Data published in the Bradley open melting point set (2014).
Several values for one entry are separate records, joined by “and”; a condition that tells them apart may be missing. Equal values may be shown once.

| SMILES | melting point |
| --- | --- |
| CCOCCOCCOCC [1-Ethoxy-2-(2-ethoxyethoxy)ethane] | -44 °C |
| CCCCI [1-Iodobutane] | -103 °C |
| CCCCCCCCCCCCCCCCI [1-Iodohexadecane] | 22 °C |
| CCCI [1-Iodopropane] | -101 °C |
| S=C=Nc1cccc2ccccc12 [1-Isothiocyanatonaphthalene] | 58 °C |
| CNC(=O)Oc1cccc2ccccc12 [1-Naphthyl methylcarbamate] | 142 °C |
| O=[N+]([O-])c1cccc2ccccc12 [1-Nitronaphthalene] | 62 °C |
| CCCCCCCCCCN [1-aminodecane] | 16 °C |
| O=C1CCN(C(=O)c2ccccc2)CC1 [1-benzoyl-4-piperidone] | 55 °C |
| c1ccc(Cn2ccnc2)cc1 [1-benzylimidazole] | 71 °C |
| CC(C)(C)OC(=O)N1CCNCC1 [1-boc-piperazine] | 46 °C |
| ClCCBr [1-bromo-2-chloroethane] | -17 °C |
| CC(C)CCBr [1-bromo-3-methylbutane] | -112 °C |
| CCCCCBr [1-bromopentane] [listing 1 of 2 here] | -88 °C |
| CCCCCBr [1-bromopentane] [listing 2 of 2 here] | -95 °C |
| CCCBr [1-bromopropane] | -110 °C |
| CCCCCCCCCCCBr [1-bromoundecane] | -9 °C |
| CCCCS [1-butanethiol] | -116 °C |
| O=[N+]([O-])c1ccc(Cl)cc1[N+](=O)[O-] [1-chloro-3,4-dinitrobenzene] | 23 °C |
| Clc1cccc2ccccc12 [1-chloronaphthalene] | -20 °C |
| CCCCCCCCCCl [1-chlorononane] | -39 °C |
| CCCCCCCCCCS [1-decanethiol] | -26 °C |
| C#CCCCCCCCCCC [1-dodecyne] | -19 °C |
| C#CC1(O)CCCCC1 [1-ethynyl-1-cyclohexanol] | 33 °C |
| CCCCCCCO [1-heptanol] | -34 °C (2×) and -33.2 °C |
| C#CCCCCC [1-heptyne] | -81 °C |
| CCCCCCCCCCCCCCCCS [1-hexadecanethiol] | 21 °C |

| SMILES | melting point |
| --- | --- |
| C#CCCCCCCCCCCCCCC [1-hexadecyne] | 15 °C |
| CCCCCCN [1-hexylamine] | -19 °C |
| CCCCI [1-iodobutane] | -103 °C |
| CCCCCCCCCCI [1-iododecane] | -16 °C |
| CCCCCCCCCCCCI [1-iodododecane] | 0 °C |
| CCCCCCCI [1-iodoheptane] | -48 °C |
| CCCCCI [1-iodopentane] | -86 °C |
| CCCI [1-iodopropane] | -101 °C |
| CC1(O)CCCCC1 [1-methylcyclohexanol] | 26 °C |
| CC1(O)CCCC1 [1-methylcyclopentanol] [listing 1 of 2 here] | 37 °C |
| CC1(O)CCCC1 [1-methylcyclopentanol] [listing 2 of 2 here] | 37 °C |
| O=Cc1cccc2ccccc12 [1-naphthaldehyde] | 2 °C |
| CCCCCCCCCCCCCCCCCCO [1-octadecanol] | 61 °C |
| C#CCCCCCCCCCCCCCCCC [1-octadecyne] | 27 °C |
| CCCCCO [1-pentanol] | -78 °C |
| CCCC=CB(O)O [1-pentenylboronic acid] | 80 °C |
| CCCS [1-propanethiol] | -113 °C |
| CCCN [1-propylamine] | -83 °C |
| CC(=O)OC[C@H]1O[C@@H](S)[C@H](OC(C)=O)[C@@H](OC(C)=O)[C@@H]1OC(C)=O [1-thio-beta-D-glucose tetraacetate] | 116 °C |
| c1c[nH]nn1 [1h-1,2,3-triazole] | 24 °C |
| OCCOCCOCCO [2,2'-[Ethane-1,2-diylbis(oxy)]diethanol] | -4 °C |
| Oc1ccc(Cl)cc1Cc1cc(Cl)ccc1O [2,2'-methylenebis(4-chlorophenol)] | 174 °C |
| OCC(F)(F)F [2,2,2-Trifluoroethanol] | -43.5 °C |
| CC(C)(C)C(N)=S [2,2,2-trimethylthioacetamide] | 115 °C |
| OCC(F)(F)C(F)(F)CO [2,2,3,3-tetrafluoro-1,4-butanediol] | 84 °C |
| CC(C)CC(C)(C)C [2,2,4-Trimethylpentane] | -107 °C |
| CC(C)C(O)C(C)(C)CO (stereo not drawn) [2,2,4-trimethyl-1,3-pentanediol] | 52 °C |

Now from value to molecule:

| melting point | SMILES |
| --- | --- |
| -58 °C | C=C(C)C(=O)OC(O)CC (stereo not drawn) [1-Hydroxypropyl methacrylate] |
| 176 °C | O=[N+]([O-])c1ccc(I)cc1 [1-Iodo-4-nitrobenzene] |
| -68 °C | Cc1ccc(C(C)C)cc1 [1-Isopropyl-4-methylbenzene] |
| -97 °C | COCC(C)O (stereo not drawn) [1-Methoxypropan-2-ol] |
| 38 °C | CC1(C(=O)O)CCCCC1 [1-Methylcyclohexanecarboxylic acid] |
| 85 °C | Cc1cccc2c1Cc1ccccc1-2 [1-Methylfluorene] |
| -22 °C | Cc1cccc2ccccc12 [1-Methylnaphthalene] |
| -5 °C | C=Cc1cccc([N+](=O)[O-])c1 [1-Nitro-3-vinylbenzene] |
| 250 °C | O=[N+]([O-])c1ccc(/N=N/c2c(O)ccc3ccccc23)cc1 [1-[(E)-(4-Nitrophenyl)diazenyl]-2-naphthol] |
| 10 °C | CC(=O)c1cccc2ccccc12 [1-acetylnaphthalene] |
| 208 °C | Nc1ccc(O)c2c1C(=O)c1ccccc1C2=O [1-amino-4-hydroxyanthraquinone] |
| 118 °C | Nc1ccc2ccc3cccc4ccc1c2c34 [1-aminopyrene] |
| 97 °C | N#CC1(O)CCN(Cc2ccccc2)CC1 [1-benzyl-4-cyano-4-hydroxypiperidine] |
| 36 °C | CC(C)(C)OC(=O)N1CCCCC1=O [1-boc-2-piperidone] |
| 47 °C | CC(C)(C)OC(=O)N1CCc2ccccc21 [1-boc-indoline] |
| -68 °C | CCc1ccccc1Br [1-bromo-2-ethylbenzene] |
| 10 °C | Brc1ccccc1I [1-bromo-2-iodobenzene] |
| 75 °C | Oc1ccc2ccccc2c1Br [1-bromo-2-naphthol] |
| 91 °C | Brc1ccc(I)cc1 [1-bromo-4-iodobenzene] |
| 6 °C | FC(F)(F)C(F)(F)C(F)(F)C(F)(F)C(F)(F)C(F)(F)C(F)(F)C(F)(F)Br [1-bromoperfluorooctane] |

| melting point | SMILES |
| --- | --- |
| -185 °C | C=CCC [1-butene] |
| 1 °C | Clc1ccccc1I [1-chloro-2-iodobenzene] |
| 45 °C | O=[N+]([O-])c1cccc(Cl)c1 [1-chloro-3-nitrobenzene] |
| 77 °C | Clc1cccc2cc3ccccc3cc12 [1-chloroanthracene] |
| -66.1 °C | C=CCCCCCCCC [1-decene] [listing 1 of 2 here] |
| -66 °C | C=CCCCCCCCC [1-decene] [listing 2 of 2 here] |
| 103 °C | CN(C)/C=C/[N+](=O)[O-] [1-dimethylamino-2-nitroethylene] |
| -85 °C | CC(O)CN(C)C (stereo not drawn) [1-dimethylamino-2-propanol] |
| 112 °C | CCC1(O)CCC(c2ccccc2)c2ccccc21 (stereo not drawn) [1-ethyl-4-phenyl-1,2,3,4-tetrahydronaphthalen-1-ol] |
| 2 °C | O=[N+]([O-])c1cccc(F)c1 [1-fluoro-3-nitrobenzene] |
| 50 °C | O=[N+]([O-])c1ccccc1I [1-iodo-2-nitrobenzene] |
| 38 °C | O=[N+]([O-])c1cccc(I)c1 [1-iodo-3-nitrobenzene] |
| 175 °C | O=[N+]([O-])c1ccc(I)cc1 [1-iodo-4-nitrobenzene] |
| 0 °C | Cc1ccccc1-c1ccccc1 [1-methyl-2-phenylbenzene] |
| 5 °C | Cc1cccc(-c2ccccc2)c1 [1-methyl-3-phenylbenzene] |
| -68 °C | Cc1ccc(C(C)C)cc1 [1-methyl-4-isopropylbenzene] |
| -53 °C | Cc1ccc(C(C)(C)C)cc1 [1-methyl-4-tert-butylbenzene] |
| 38 °C | CC1(C(=O)O)CCCCC1 [1-methylcyclohexanecarboxylic acid] |
| -142 °C | CC1=CCCC1 [1-methylcyclopentene] |
| 242 °C | Cn1cnc(C(=O)O)c1 [1-methylimidazole-4-carboxylic acid] |

| melting point | SMILES |
| --- | --- |
| 41 °C | CCCCc1ccc(C#Cc2ccc(CCCC)cc2)cc1 [1-n-butyl-4-[(4-butylphenyl)ethynyl]benzene] |
| 96 °C | Oc1cccc2ccccc12 [1-naphthol] |
| 177 °C | NC(=O)Cc1cccc2ccccc12 [1-naphthylacetamide] |
| -102 °C | C=CCCCCCC [1-octene] |
| 56 °C | CC(=O)OC1=CC(c2ccccc2)c2ccccc21 (stereo not drawn) [1-phenyl-1H-inden-3-yl acetate] |
| 172 °C | NC(=O)NNc1ccccc1 [1-phenylsemicarbazide] |
| 185 °C | O=C(O)CCCc1ccc2ccc3cccc4ccc1c2c34 [1-pyrenebutyric acid] |
| -52 °C | Cc1ccc(C(C)(C)C)cc1 [1-tert-Butyl-4-methylbenzene] |
| -49 °C | C=CCCCCCCCCC [1-undecene] |
| 107 °C | COC(=O)c1cc(C)[nH]n1 [1H-pyrazole-3-carboxylic acid, 5-methyl-, methyl ester] |
| 41 °C | Cc1cc(CO)nn1C [1H-pyrazole-3-methanol, 1,5-dimethyl-] |
| 203 °C | O=c1c(O)c(-c2ccccc2O)oc2ccccc12 [2',3-dihydroxyflavone] |
| 122 °C | CC(=O)Nc1ccc(F)cc1F [2',4'-difluoroacetanilide] |
| 70 °C | COc1cccc(OC)c1C(C)=O [2',6'-dimethoxyacetophenone] |
| 145 °C | CC(=O)Nc1ccccc1S(C)(=O)=O [2'-(methylsulfonyl)acetanilide] |
| 90 °C | O=C(/C=C/c1ccccc1)c1ccccc1O [2'-hydroxychalcone] |
| 73 °C | CC(=O)Nc1ccccc1C(C)C [2'-isopropylacetanilide] |
| 91 °C | c1ccc(-c2cccc(-c3ccccn3)n2)nc1 [2,2':6',2''-terpyridine] |
| 73 °C | NC(=O)C(F)(F)F [2,2,2-trifluoroacetamide] |
